Experimental data reported in patent US8288418B2, “Benzimidazole derivatives and their use for modulating the GABAA receptor complex” (Neurosearch A/S, priority 2006, dated 2012).

Target: GABAA receptor complex, benzodiazepine modulatory unit (cerebral cortex membranes)
Assay: In vitro inhibition of 3H-flunitrazepam (3H-FNM) binding
Parameters: species or system rat
Conditions: inhibition of specific binding of 3H-FNM (1 nM), cerebral cortex membranes of male Wistar rats, 40 min at 2° C.
Description: In vitro Inhibition of ^3H-flunitrazepam (^3H-FNM) Binding
The GABA recognition site and the benzodiazepine modulatory unit can selectively be labelled with ^3H-flunitrazepam.
Preparations are performed at 0-4° C. unless otherwise indicated. Cerebral cortex from male Wistar rats (150-200 g) is homogenised for 5-10 sec in 20 ml Tris-HCl (30 mM, pH 7.4) using an Ultra-Turrax homogeniser. The suspension is centrifuged at 27,000×g for 15 min and the pellet is washed three times with buffer (centrifuged at 27,000×g for 10 min). The washed pellet is homogenized in 20 ml of buffer and incubated on a water bath (37° C.) for 30 min to remove endogenous GABA and then centrifuged for 10 min at 27,000×g. The pellet is then homogenized in buffer and centrifuged for 10 min at 27,000×g. The final pellet is resuspended in 30 ml buffer and the preparation is frozen and stored at −20° C.
The membrane preparation is thawed and centrifuged at 2° C. for 10 min at 27,000×g. The pellet is washed twice with 20 ml 50 mM Tris-citrate, pH 7.1 using an Ultra-Turrax homogeniser and centrifuged for 10 min at 27,000×g. The final pellet is resuspended in 50 mM Tris-citrate, pH 7.1 (500 ml buffer per g of original tissue), and then used for binding assays. Aliquots of 0.5 ml tissue are added to 25 μl of test solution and 25 μl of ^3H-FNM (1 nM, final concentration), mixed and incubated for 40 min at 2° C. Non-specific binding is determined using Clonazepam (1 μM, final concentration). After incubation the samples are added 5 ml of ice-cold buffer and poured directly onto Whatman GF/C glass fibre filters under suction and immediately washed with 5 ml ice-cold buffer. The amount of radioactivity on the filters is determined by conventional liquid scintillation counting. Specific binding is total binding minus non-specific binding.
25-75% inhibition of specific binding must be obtained, before calculation of an IC50.
The test value will be given as IC50 (the concentration (μM) of the test substance which inhibits the specific binding of ^3H-FNM by 50%).
Co is specific binding in control assays, and
Cx is the specific binding in the test assay.
(The calculations assume normal mass-action kinetics).
In the case of `COc1cc(F)ccc1-c1cccc(-n2cnc3cc(C(F)(F)F)ccc32)c1` [Compound 9a, 1-(4′-Fluoro-2′-methoxy-biphenyl-3-yl)-5-trifluoromethyl-1H-benzoimidazole], the IC50 is reported as 1.4 nM. For `CC(C)(O)c1ccc2c(c1)ncn2-c1cccc(-c2ccccc2C#N)c1` [Compound 9aac, 3′-[5-(1-Hydroxy-1-methyl-ethyl)-benzoimidazol-1-yl]-biphenyl-2-carbonitrile], the IC50 was 0.65 nM. Work on `CC(C)(O)c1ccc2c(c1)ncn2-c1cccc(-c2cccnc2F)c1` [Compound 9ada, 2-{1-[3-(2-Fluoro-pyridin-3-yl)-phenyl]-1H-benzoimidazol-5-yl}-propan-2-ol] yielded an IC50 of 4 nM. For `C[C@@H](O)c1ccc2c(c1)ncn2-c1cccc(-c2cccnc2F)c1` [Compound 9aba, (R)-1-{1-[3-(2-Fluoro-pyridin-3-yl)-phenyl]-1H-benzoimidazol-5-yl}-ethanol], the IC50 was 6.2 nM. `N=C(NO)c1ccc2c(c1)ncn2-c1cccc(-c2ccccc2Cl)c1` [Compound 12ha, 1-(2′-Chloro-biphenyl-3-yl)-N-hydroxy-1H-benzoimidazole-5-carboxamidine] showed an IC50 of 0.95 nM. Molecule `COc1ccccc1-c1cccc(-n2cnc3cc(-c4cc[nH]n4)ccc32)c1` [Compound 9ak, 5-(1H-3-Pyrazolyl)-1-(2′-methoxy-biphenyl-3-yl)-1H-benzoimidazole] has an IC50 of 21 nM.

Test system: not given
Assay: not given
Conditions: not given
For `COc1cc(F)ccc1-c1cccc(-n2cnc3cc(C(F)(F)F)ccc32)c1` [Compound 9a, 1-(4′-Fluoro-2′-methoxy-biphenyl-3-yl)-5-trifluoromethyl-1H-benzoimidazole], the melting point was 95.5 °C. With `CC(O)c1ccc2c(c1)ncn2-c1cccc(-c2cccnc2O)c1` (stereo not shown) [Compound 16, 3-{3-[5-(1-Hydroxy-ethyl)-benzoimidazol-1-yl]-phenyl}-pyridin-2-ol] the melting point was 133 to 137 °C. With `CC(C)OC(=O)c1ccc2c(c1)ncn2-c1cccc(-c2cccnc2Cl)c1` [Compound 19, 1-[3-(2-Chloro-pyridin-3-yl)-phenyl]-1H-benzoimidazole-5-carboxylic acid isopropyl ester] the melting point was 147 to 150 °C. `CC(=NO)c1ccc2c(c1)ncn2-c1cccc(-c2cccnc2O)c1` [Compound 15, 1-{1-[3-(2-Hydroxy-pyridin-3-yl)-phenyl]-1H-benzoimidazol-5-yl}-ethanone oxime] showed a melting point of 220 to 223 °C.
